In patent publication EP0266896A1, “7-( (Meta-substituted) phenylglycine) 1-carba-1-dethiacephalosporins” (priority 1986, dated 1988):
Where a name gives a salt, the structure may show the parent alone. Read-outs that look alike come from different tables or passages of the source.

Legend:
[1] = rat, in vivo, iv, 20 mg/kg
Description: (§2) The tests were performed by methods well-recognized in the art.
(§3) Specifically, the male Sprague-Dawley rats were administered a 20 mg/kg dose intravenously. The plasma levels of the administered compound were monitored by bioassay with an E. coli strain.

[2] = test system: Staphylococcus epidermidis EPI1; test: MIC by standard agar dilution test; assay type: cell-based; settings: Staphylococcus epidermidis EPI1, methicillin resistant
Description: (§1) The antibiotic activity of selected compounds of Formula I and, for comparison, a compound of related structure, is illustrated by the following in vitro test data. In Table I, the minimum inhibitory concentrations (MIC) for the compounds against a wide range of gram-positive and gram-negative bacteria are presented. The MIC values were obtained by the standard agar dilution test method. The excellent in vitro activity of the claimed compounds is especially surprising in light of their high solution stability. High solution stability of a β-lactam compound was until now thought to indicate low acylating ability of the β-lactam, and thus low antibacterial activity for the compound.

[3] = test system: Staphylococcus aureus V41; test: MIC by standard agar dilution test; assay type: cell-based; settings: Staphylococcus aureus V41, penicillin G resistant
Description: as §1

[4] = test system: Staphylococcus aureus S13E; test: MIC by standard agar dilution test; assay type: cell-based; settings: β-lactamase producer, penicillin G resistant
Description: as §1

Shigella sonnei N9 = test: MIC by standard agar dilution test; assay type: cell-based
Description: as §1

[5] = test system: Staphylococcus epidermidis EPI2; test: MIC by standard agar dilution test; assay type: cell-based; settings: Staphylococcus epidermidis EPI2, methicillin resistant
Description: as §1

Escherichia coli TEM = test: MIC by standard agar dilution test; assay type: cell-based; settings: β-lactamase producer
Description: as §1

Salmonella typhi X514 = test: MIC by standard agar dilution test; assay type: cell-based
Description: as §1

[6] = test system: Hemophilus influenzae C.L.; test: MIC by standard agar dilution test; assay type: cell-based
Description: as §1

[7] = test system: Streptococcus pneumoniae Park I; test: MIC by standard agar dilution test; assay type: cell-based
Description: as §1

Salmonella typhi 1335 = test: MIC by standard agar dilution test; assay type: cell-based
Description: as §1

[8] = Intravenous pharmacokinetics in the rat, plasma levels monitored by bioassay with an E. coli strain
Description: as §2, §3

SMILES | AUC (area under the curve) [1] | Half-Life [1] [h] | Minimum Inhibitory Concentration [4] [µg/mL] | Minimum Inhibitory Concentration (Shigella sonnei N9) [µg/mL] | Minimum Inhibitory Concentration (Salmonella typhi X514) [µg/mL] | Minimum Inhibitory Concentration (Salmonella typhi 1335) [µg/mL] | also measured
CCS(=O)(=O)Nc1cccc(C(N)C(=O)N[C@@H]2C(=O)N3C(C(=O)O)=C(Cl)CC[C@H]23)c1.O=C(O)C(F)(F)F (stereo partly drawn) [Example 3, 7β-[2ʹ-(R,S)-2ʹ-(m-(Ethylsulfonamido)phenyl)-2ʹ-Aminoaetamido]-3-Chloro-3-(1-Carba-1-Dethiacephem)-4-Carboxyl ic Acid Trifluoroacetate Salt] | 18 | 0.55 |  |  |  |  | 
CS(=O)(=O)Nc1cccc([C@@H](N)C(=O)N[C@@H]2C(=O)N3C(C(=O)O)=C(Cl)CC[C@H]23)c1.O=C(O)C(F)(F)F [Example 1, 7β-[2ʹ-(R)-2ʹ-(m-(Methylsulfonamido)phenyl)-2ʹ-Aminoactamido]-3-Chloro-3-(1-Carba-1-Dethiacephem)-4-Carboxyli c Acid Trifluoroacetate Salt] |  |  | 2 | 0.5 | 0.5 | 0.5 | Minimum Inhibitory Concentration [2]: 4 µg/mL; Minimum Inhibitory Concentration [3]: 4 µg/mL; Minimum Inhibitory Concentration [5]: 2 µg/mL; Minimum Inhibitory Concentration (Escherichia coli TEM): 0.25 µg/mL; Minimum Inhibitory Concentration [6]: 2 µg/mL; Minimum Inhibitory Concentration [7]: 1 µg/mL; Half-Life ([8]; rat plasma, 20 mg/kg intravenously, bioassay, model-independent analysis): 5.57 h
CCS(=O)(=O)Nc1cccc([C@@H](N)C(=O)N[C@@H]2C(=O)N3C(C(=O)O)=C(Cl)CC[C@H]23)c1 [Example 4, 7β-[2ʹ-(R)-2ʹ-(m-(Ethylsulfonamido)phenyl)-2ʹ-Aminoace amido)-3-Chloro-3-(1-Carba-1-Dethiacephem)-4-Carboxylic Acid, Zwitterionic Salt] | 12 | 0.683 | 2 | 2 | 2 | 2 | 
CCCS(=O)(=O)Nc1cccc([C@@H](N)C(=O)N[C@@H]2C(=O)N3C(C(=O)O)=C(Cl)CC[C@H]23)c1 [Example 5, 7β-[2ʹ-(R)-2ʹ-(m-(n-Propylsulfonamido)phenyl)-2ʹ-Aminocetamido]-3-Chloro-3-(1-Carba-1-Dethiacephem)-4-Carboxy lic Acid, Zwitterionic Salt.] | 20 | 0.65 |  |  |  |  | 
CS(=O)(=O)Nc1cccc([C@@H](N)C(=O)N[C@@H]2C(=O)N3C(C(=O)O)=C(Cl)CC[C@H]23)c1 [Example 2, 7β-[2ʹ-(R)-2ʹ-(m-(Methylsulfonamido)phenyl)-2ʹ-Aminoactamido]-3-Chloro-3-(1-Carba-1-Dethiacephem)-4-Carboxyli c Acid, Zwitterionic Salt] |  |  |  |  |  |  | Half-Life ([8]; rat, plasma, iv, 20 mg/kg): 5.28 h
